# Legend:
# cells = settings: cited from earlier work
# [1] = cited from earlier work
# [2] = intravenous administration, clinical experiments; cited from earlier work
# system xc− = target: T1, system xc− (Homo sapiens, UniProt Q9UPY5); experiment: in vitro screening assay of system xc− (14C-cystine uptake, 3H-glutamate) in 1321N1 cells; format: cell-based; settings: human glial cells from brain astrocytoma (1321N1)
# T1 construct: a cell line with high system xc− expression; endogenous in cells; host or cells: 1321N1 human astrocytoma cells
# T1 sequence (Q9UPY5 1-501): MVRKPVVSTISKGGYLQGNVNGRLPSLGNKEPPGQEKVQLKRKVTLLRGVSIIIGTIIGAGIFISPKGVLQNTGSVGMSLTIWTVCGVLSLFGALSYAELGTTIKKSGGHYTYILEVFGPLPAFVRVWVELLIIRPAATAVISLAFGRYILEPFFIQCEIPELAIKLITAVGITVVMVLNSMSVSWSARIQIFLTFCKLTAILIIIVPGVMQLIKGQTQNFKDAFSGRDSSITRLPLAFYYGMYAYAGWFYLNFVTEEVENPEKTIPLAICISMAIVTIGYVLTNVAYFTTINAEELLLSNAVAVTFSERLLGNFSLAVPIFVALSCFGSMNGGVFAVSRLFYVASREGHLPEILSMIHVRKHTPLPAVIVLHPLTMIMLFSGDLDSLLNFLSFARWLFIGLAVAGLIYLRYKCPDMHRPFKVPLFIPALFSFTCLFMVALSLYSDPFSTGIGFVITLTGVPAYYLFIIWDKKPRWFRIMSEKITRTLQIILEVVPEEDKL
# T1 sequence (P08195 1-529 partner): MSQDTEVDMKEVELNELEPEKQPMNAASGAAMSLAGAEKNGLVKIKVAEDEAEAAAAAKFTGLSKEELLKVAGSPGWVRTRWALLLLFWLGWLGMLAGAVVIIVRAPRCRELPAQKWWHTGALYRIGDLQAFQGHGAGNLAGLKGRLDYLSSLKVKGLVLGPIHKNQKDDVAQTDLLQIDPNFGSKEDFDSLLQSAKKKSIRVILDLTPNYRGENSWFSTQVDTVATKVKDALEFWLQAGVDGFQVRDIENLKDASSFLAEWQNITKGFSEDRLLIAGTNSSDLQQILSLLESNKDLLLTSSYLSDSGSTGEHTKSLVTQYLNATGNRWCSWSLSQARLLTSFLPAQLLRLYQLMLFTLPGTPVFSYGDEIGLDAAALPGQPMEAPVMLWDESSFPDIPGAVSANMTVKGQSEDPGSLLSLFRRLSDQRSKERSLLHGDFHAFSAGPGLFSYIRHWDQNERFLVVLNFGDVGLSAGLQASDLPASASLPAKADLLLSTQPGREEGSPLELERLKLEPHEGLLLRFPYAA
# Excerpt: Using an in vitro screening assay conducted in human glial cells from brain astrocytoma (1321N1), a cell line with high system xc− expression, the compound with the following formula: […]
# [3] = pre-pulse inhibition (PPI) model of antipsychotic-like activity; format: in vivo; settings: orally-active
# [4] = elevated plus maze (EPM) model of anxiolytic-like activity; format: in vivo; settings: orally-active
# mice treated with MPTP = settings: cited from earlier work
# [5] = test system: alpha-synuclein overexpressing mice; settings: mouse, in vivo; cited from earlier work
# brain of rats = settings: systemic administration; cited from earlier work
# brain of gerbils = settings: systemic administration; cited from earlier work
compound,measurement,setting,value
CC(=O)N[C@H](CS)C(N)=O,protection of cells from neurotoxicity induced by rotenone,cells,protected cells from neurotoxicity
N[C@@H](CCC(=O)N[C@@H](CS)C(=O)NCC(=O)O)C(=O)O [glutathione],solubility characteristics,[1],poor
same,reduction of motor impairment and disability,[2],40%
O=C(Cc1ccccc1)N[C@@H](CSC(c1ccccc1)(c1ccccc1)c1ccccc1)C(=O)O,3H-glutamate (glutamate release),system xc−,significant elevations
same,uptake of 14C-cystine,system xc−,robust and significant decrease
same,behavioral effects in PPI model,[3],significant behavioral effects
same,behavioral effects in EPM model,[4],significant behavioral effects
"CC(=O)N[C@@H](CS)C(=O)O [NAC, N-acetylcysteine]",neuroprotective effect in different MPTP mouse models,"mice treated with MPTP; Aoyama et al., 2008, Perry et al., 1985",partial neuroprotective effect
same,therapeutic potential in MPTP-treated mice,"mice treated with MPTP; mouse, in vivo",exhibited therapeutic potential
same,therapeutic potential in alpha-synuclein overexpressing mice,[5],exhibited therapeutic potential
same,protection against oxidative stress in the brain,brain of rats,provides protection against oxidative stress
same,protection against oxidative stress in the brain,brain of gerbils,provides protection against oxidative stress
same,solubility characteristics,[1],poor
